Assay results: patent US20260115162A1, “COMPOSITION OR ASSOCIATION OF COMPOUNDS PREFERABLY FOR USE IN THE TREATMENT OF NERVOUS DISEASES IN PARTICULAR NEURODEGENERATIVE DISEASES, METHOD FOR THE PREPARATION OF SUCH COMPOSITION OR ASSOCIATION OF COMPOUNDS AND USES THEREOF” (PHARMACEUTICA SAN MARCO S.R.L., priority 2022, published 2026)
Where “and” joins values, the source holds several entries; their conditions need not be identical. Identical values can stand only once.

Tests used:
PSD-95 = PSD-95 in PFC and HIPP of mice treated with Aβ icv, Western blotting (FIG. 12); format: in vivo; conditions: after 7 days
Experimental: The βCP, FE, βBA and HA4 influence on prefrontal and hippocampal synaptic plasticity was evaluated using anti-PSD-95, anti-synaptophysin, anti-CaMKII antibodies.
(§1) The Aβ1-42, obtained from Tocris (Bristol, UK), was dissolved in sterile double-distilled pyrogenic-free water, as vehicle, to obtain a final concentration 4 μM [Colaianna M et al. 2010]. Mice were anesthetized with a solution (0.85 in ml/kg, i.p.), containing ketamine (Sigma Aldrich, Milan, Italy, 100 mg/10 ml), xylazine (Sigma Aldrich, Milan, Italy, 100 mg/10 ml) and acepromazine (prequillant, ATI Azienda Terapeutica Veterinaria Srl, 10 mg/10 ml) dissolved in saline solution. […] At the time of dissection, the correct needle track was assessed. […]
(§2) The total amount of proteins was measured in homogenates by using Pierce BCA Assay (Thermo Fisher Scientific, Cleveland, OH, USA). […] After HRP-conjugated specific antibody incubation, ECL reagent (Bio-Rad Laboratories Inc., Segrate (MI), Italy) was added to the immune complex and chemiluminescence was detected by ChemiDoc MP system (Bio-Rad Laboratories Inc., Segrate (MI), Italy). Optical densities of the bands were measured using Image J software (http://rsb.info.nih.gov/ij/ accessed on 15 Mar. 2021) and normalized against bands relative to -actin (1:5,000, Abcam, Cambridge, UK).

[1] = Blood concentration of βBA by oral-sublingual vs oral-gastro-intestinal route (FIG. 1); format: in vivo, humans
Experimental: FIG. 1. Blood Concentration of βBA Administered by Oral-Sublingual Route Vs. Oral-Gastro-Intestinal Route. • ? 43 a, 58 kg BW • βBA administered both via os and sublingual: 10 mg=172.4 ng/g. • Maximum blood concentration via sublingual route: 95 ng/ml. • Maximum blood concentration via os: 52 ng/ml. • Δos/plasma: 1.82. • Note • 1. […] The explanation is that βBA is an excellent vasodilator, probably through the release of NO nitric oxide [Wang M et al. 2015], synergistic with the other compounds of the composition or association object of the present invention. • 2. […] Note that with the present experiment, the Δos/plasma ratio of 1.82 was the same as that found by Sterk V et al. 2004 (Table 1).

NF-kB = NF-kB in PFC and HIPP of mice treated with Aβ icv, Western blotting (FIG. 10); format: in vivo; conditions: after 7 days
Experimental: as §1, §2

noradrenaline (NA) = assay: Norepinephrine (NA) levels in mice treated with Aβ icv (FIG. 5b); format: in vivo; conditions: PFC and HIPP
Experimental: as §1
All behavioral experiments were conducted at 5 or 30 min after sublingual administrations of βBA or vehicle in mice treated with SHAM or AP. Based on the observed behavioral results, neurochemical and biochemical quantifications were performed 30 min after administration of βCP, FE, and βBA or vehicle in SHAM- or Aβ-treated mice. […]
5-HT, noradrenaline (NA), and KYN levels were measured in the PFC and HIPP of mice by HPLC coupled with an electrochemical detector (Ultimate ECD, Thermo Scientific Dionex, Milan, Italy) as already reported [Francavilla M et al. 2012, Morgese M G et al. 2016]. […] GLU concentrations were determined by HPLC coupled with fluorescence detection (emission length 460 nm; excitation length 340 nm), as previously published [Francavilla M et al. 2012]. […]

## C[C@H]1[C@H](C)CC[C@]2(C)CC[C@]3(C)C(=CC[C@@H]4[C@@]5(C)CC[C@@H](O)[C@](C)(C(=O)O)[C@@H]5CC[C@]43C)[C@H]12 [βBA, β-boswellic acid]
PSD-95
  PSD-95 tissue concentration: remove Aβ-induced alterations in a progressive manner
[1]; one person, 58 kg BW, 10 mg=172.4 ng/g, sublingual
  Maximum blood concentration via sublingual route: 95 ng/mL
[1]; one person, 58 kg BW, 10 mg=172.4 ng/g, via os
  Maximum blood concentration via os: 52 ng/mL
[1]; sublingual administration
  Δos/plasma: 1.81 and 1.82
[1]; via os
  reduction in blood concentration with respect to the administered dose: 67% and 70%
[1]; via os administration
  Δos/plasma: 2.97
NF-kB
  NF-kB tissue concentration: progressive removal of the pro-inflammatory effect induced by Aβ
Noradrenaline (NA)
  Norepinephrine (NA) levels: removes the reduction of NA induced by Aβ treatment and increases its expression in both PFC and HIPP compared with the control group
